Laboratory results reported in ChEMBL document CHEMBL3507680, “University of Dundee, Gates Library screen for HepG2 cell viability”.

Assay: Human HepG2 cell viability assay in 384 well format
Type: toxicity, cell-based
Parameters: dose 125 nL, time 70.5 hour; cytotoxicity at 70.5 h: concentration not given beside the values
Settings: HepG2 cells, read-out: Inhibition

| SMILES | cytotoxicity at 70.5 h [%] |
| --- | --- |
| Cc1c(CN2CCCCC2)c(O)n(CCO)c(=O)c1C#N | -2.11 |
| NC(=O)C1CCN(C(=O)CCSCc2ccccc2)CC1 | -5.5 |
| Cn1ccc(NC(=O)CN2CCN(C3CCCC3)C(=O)C2)n1 | -4.86 |
| CC(=O)N1CCC(c2ncc(C(=O)Nc3ccc(F)cc3)c(C)n2)CC1 | 12.6 |
| COc1ccc(NC(=O)c2cnc(C3CCN(C)CC3)nc2C)cc1 | -2.26 |
| CN1C[C@H](c2ccccc2)[C@H]2CN(C(=O)Cc3cccc(O)c3)CC[C@H]21 | -2.25 |
| Cc1ccc(C(=O)NCc2ccnc(C3CCCOC3)n2)s1 (stereo not given) | 10.5 |
| Cc1nccn1[C@@H]1CC[C@@H](N(C)S(=O)(=O)c2ccc(F)cc2)[C@H]1O | -3.16 |
| CC(C)C(=O)NCCc1nc(-c2ccncc2)n[nH]1 | -2.41 |
| OCCN1CCCC(c2cccc(-c3ccccc3F)n2)C1 (stereo not given) | -5.22 |
| Cn1ccc(C(=O)N2CCCCC2c2cc(CCO)[nH]n2)n1 (stereo not given) | -1.7 |
| CN1CCCC(c2nccnc2-c2cccc(C(F)(F)F)c2)C1 (stereo not given) | -0.583 |
| Cc1nc(C)n(CCC(=O)NCC2CCCOC2)n1 (stereo not given) | -0.994 |
| CCc1ccccc1Nc1noc2c1CN(C(=O)c1ccn(C)n1)CC2 | 2.97 |
| COCCC(=O)NCc1ccc(-c2ncncc2C(=O)N(C)C)cc1 | 6.32 |
| CN(C)C(=O)c1cncnc1-c1ccc(CNC(=O)C2CCCO2)cc1 (stereo not given) | 10.6 |
| CC(C)C(NC(=O)C1CCCC1)c1cc(O)nc(-c2cccnc2)n1 (stereo not given) | 11 |
| CCn1ncc(CN2CCC(c3ncc(Cl)cc3S(C)(=O)=O)CC2)c1C | -8.43 |
| C/C(Cl)=C/CNC(=O)[C@H]1CC[C@]2(CC1)CN(C)C(=O)c1ccccc1O2 | -6.71 |
| COCCC(=O)NCCc1nc2cc(-c3ccc(OC)cc3)ncn2n1 | -6.53 |
| CCc1c(C)nn2c(O)cc(C3CCN(C(=O)c4ccccn4)C3)nc12 (stereo not given) | -2.35 |
| CCc1c(C)nn2c(O)cc(C3CCN(C(=O)c4ccn(C)n4)C3)nc12 (stereo not given) | 16.4 |
| O=C(c1cc(C2CC2)on1)N1C[C@H]2CC[C@](O)(c3ccc(F)cc3)[C@H]2C1 | -0.34 |

| SMILES | cytotoxicity at 70.5 h [%] |
| --- | --- |
| CN(C)Cc1cnn(-c2ccccc2C(=O)NCCC2CCCN2C)c1 (stereo not given) | -0.0444 |
| Cc1cn[nH]c1C1COCCN1Cc1ccsc1 (stereo not given) | -0.803 |
| Cc1nc(CN2CCOCC2c2[nH]ncc2C)cs1 (stereo not given) | 1.5 |
| CN(C)Cc1cccc(-c2cccnc2C(=O)NCC2CC2)c1 | -2.77 |
| Cc1ccsc1C(=O)NCc1ccnc(C2CCCOC2)n1 (stereo not given) | 13.6 |
| Cc1nccc(CN2Cc3nccn3CC2c2ccccc2)n1 (stereo not given) | -4.01 |
| CCc1c(C)nc2cc(C3CCN(Cc4ccncc4C)C3)nn2c1O (stereo not given) | -3.92 |
| O=C(CCC1CCCO1)N1CCc2nc(-c3cnccn3)nc(O)c2C1 (stereo not given) | -3.93 |
| Oc1nc(-c2cnccn2)nc2c1CCN(Cc1ccccn1)C2 | -5.26 |
| O=C(Cc1ccc(F)cc1)N1CCCC(c2n[nH]c3nccnc23)C1 (stereo not given) | 11.2 |
| Cn1nc(C2CCCN(Cc3ccc(F)cc3F)C2)c2nccnc21 (stereo not given) | 0.45 |
| CC(C)Oc1cccc(CN2CCC(c3n[nH]c4ncccc34)CC2)c1 | 30.6 |
| COc1ncccc1C(Cc1ccsc1)NC(=O)Cn1cccnc1=O (stereo not given) | 22.1 |
| Cc1c(C(=O)N2CCC(c3nc(C)n4ccsc34)CC2)cnn1C | -4.61 |
| Cc1cc(-c2cnn(CCNC(=O)c3snnc3C)c2C2CC2)on1 | -2.4 |
| Cc1cc(-c2cnn(CCNC(=O)Cc3ccccn3)c2C2CC2)on1 | -3.25 |
| Cc1cccc(CN2CCC(c3nnsc3S(C)(=O)=O)CC2)c1 | -5.38 |
| CS(=O)(=O)c1snnc1C1CCN(Cc2cccc(O)c2)CC1 | -7.7 |
| Cc1cc(C)c2cc(CNC(C)C)c3nn(C)c(=O)n3c2c1 | -1.75 |
| Cc1cc(C)c2cc(CNCc3cccnc3)c3nn(C)c(=O)n3c2c1 | -0.562 |
| CN(C)Cc1ccnc(C2CCCN2Cc2ccc(F)cn2)n1 (stereo not given) | 17.2 |
| Cc1ocnc1C(=O)N1CC[C@@H](O)[C@@H](O)[C@H](N2CCC(F)(F)CC2)C1 | -3.42 |
| COCc1ccc(C(=O)N2CC[C@H](O)[C@@H](n3ccnc3)CC2)cc1 | -6.05 |

| SMILES | cytotoxicity at 70.5 h [%] |
| --- | --- |
| NC(=O)C1(CCCc2ccccn2)CCCN(c2ncccn2)C1 (stereo not given) | -2.53 |
| COc1ccc(S(=O)(=O)N2CCC(O)(CN(C)C)C2)cc1 (stereo not given) | -4.76 |
| CN1CCCC(c2cccc(CCC(=O)NCC3(C)COC3)n2)C1 (stereo not given) | -1.36 |
| CC(C)N1CCC(Cc2cncc(-c3cccc(C(=O)O)c3)n2)CC1 | 10.8 |
| Cc1cc(-c2cnn(CCNC(=O)c3cc[nH]n3)c2C2CC2)on1 | -0.801 |
| Cn1cc(C(=O)N2CCCC(c3cnccn3)C2)cn1 (stereo not given) | -4.7 |
| Cc1cc(-c2cc(F)ccc2C(=O)O)nc(C2CCCCN2C(C)C)n1 (stereo not given) | -5.96 |
| CN(C)CC1(O)CCN(S(=O)(=O)c2ccc(Cl)cc2)C1 (stereo not given) | 3.29 |
| CNc1cccc(C2CCCN(C(=O)c3cscn3)C2)n1 (stereo not given) | -8.52 |
| Cc1nc(C(=O)N2CCCC(c3ccc4sc(N)nc4n3)C2)co1 (stereo not given) | -7.73 |
| COc1ccc(-c2cc(C3CCN(C(C)=O)CC3)ccn2)cc1 | -7.99 |
| COc1cccc(CNC(=O)c2ccccc2-n2cnc(CN)c2)c1 | 17 |
| CNC(=O)c1ccc(C2CN(C(=O)c3coc(C)n3)CCO2)nc1 (stereo not given) | -11.4 |
| Cc1csc(Nc2nccnc2C2CCCN2CC(N)=O)n1 (stereo not given) | 11 |
| CN(C)S(=O)(=O)N1CCCC(c2cccc(Cc3ccccc3F)n2)C1 (stereo not given) | 11.4 |
| CC(=O)N1CCCC1c1nccnc1Nc1ncccn1 (stereo not given) | 15.9 |
| Cc1csc(Nc2nccnc2C2CCCN2S(C)(=O)=O)n1 (stereo not given) | -12.8 |
| Cc1ccc(C(=O)N2CCCCC2c2[nH]ncc2S(C)(=O)=O)cn1 (stereo not given) | -2.26 |
| COCCC(=O)N1CCCC1c1csc(Nc2ncccn2)n1 (stereo not given) | -7.18 |
| Cn1ccc(C(=O)N2CCCC(Cc3cnc4ccccc4c3)C2)n1 (stereo not given) | -1.48 |
| Cc1noc(C2CCCN2C(=O)C2CCC2)n1 (stereo not given) | -11.5 |
| Cc1c[nH]nc1C1CCCCN1C(=O)CNS(C)(=O)=O (stereo not given) | 9.79 |
| CC(=O)N1CCC(c2n[nH]c3nccnc23)CC1 | -7.48 |

| SMILES | cytotoxicity at 70.5 h [%] |
| --- | --- |
| CNc1cncc(C2CCCN2Cc2ccnc(C)n2)n1 (stereo not given) | -0.507 |
| Cc1ccsc1C(=O)N1CCCC(c2[nH]ncc2S(C)(=O)=O)C1 (stereo not given) | -6.4 |
| C[C@]1(O)CCN(Cc2c[nH]cn2)C[C@@H]1Oc1cccc(F)c1 | -7.83 |
| Cc1cncc(C2CCCN(C(=O)c3cnco3)C2)n1 (stereo not given) | -3.92 |
| CC(C)c1nnc(CN2CCc3ccc(S(N)(=O)=O)cc32)o1 | -0.0777 |
| Cc1nc(C(C)C)sc1C(C)N(C)C(=O)c1ccc(=O)n(C)c1 (stereo not given) | 1.52 |
| Cc1c(NCCO)cccc1OC1CCCC1 | -2.5 |
| N#CC1COCCN1C(=O)c1ccc2[nH]cnc2c1 (stereo not given) | -1.24 |
| COc1cc(NC2CCCN(c3ncccn3)C2)cc(OC)c1 (stereo not given) | 3.49 |
| COc1c(CNCC(=O)N2CCN(C)CC2)c(C(C)C)nn1C | -5.29 |
| O=C(CCn1cncn1)NCCOc1cccc(Cl)c1 | -2.18 |
| CC(C(=O)NCCc1ccc2c(c1)OCCO2)n1cncn1 (stereo not given) | -14.6 |
| Cc1ccc(C(=O)NC2CCCN(S(C)(=O)=O)C2)c(=O)[nH]1 (stereo not given) | -2.62 |
| Cc1ccc(C(=O)NC2CCCN(CC(N)=O)C2)c(=O)[nH]1 (stereo not given) | -7.85 |
| Cc1nn(C)c(C)c1CC(=O)NCC1(C(N)=O)CCOCC1 | 22.8 |
| Cc1nc(C)n(CC2CCCN2c2ncnc3sccc23)n1 (stereo not given) | -7.8 |
| CCc1ccsc1C(=O)NC(C#N)CC (stereo not given) | -5.37 |
| Cc1sc2ncnc(N3CCCC3Cn3cccn3)c2c1C (stereo not given) | -11.4 |
| CCNC(=O)CN(CC)C(=O)c1csc(Cc2ccccc2F)n1 | -13.1 |
| Cc1ncsc1COC(=O)c1cccc2c1OCCO2 | -5.64 |
| O=C(CCn1cccn1)NCCOc1ncc(Cl)cc1Cl | -10.6 |
| Cc1cc(C)c(C#N)c(NCCn2cnnc2C(C)C)n1 | 0.173 |
| CS(=O)(=O)N1CCC(CNc2cc(Cl)ccc2C#N)CC1 | -6.86 |

| SMILES | cytotoxicity at 70.5 h [%] |
| --- | --- |
| N#CC1COCCN1C(=O)c1cccc2cc[nH]c12 (stereo not given) | -13.5 |
| CCN(C)Cc1cccc(CNC(=O)NCCc2ccccn2)c1 | -3.19 |
| Cc1oc(-c2ccco2)nc1CN1CCc2cncnc2C1 | -1.22 |
| CS(=O)(=O)NCc1cccc(COC2CCCCC2)c1 | -3.13 |
| COCc1ccccc1C(=O)OCc1noc(C)n1 | -15.9 |
| OCCCNc1cccc(COC2CCCCC2)c1 | 21 |
| CC(NCc1ccnc(OC2CCC2)c1)c1cnn(C)c1 (stereo not given) | -15.1 |
| CCn1ccnc1CN1CCCC1c1c(C)nn(C)c1OC (stereo not given) | -4.2 |
| N#Cc1ccc(CN2CCc3sccc3C2)c(F)c1 | -1.03 |
| Cc1ccc(-c2ccccc2CC2CNCCNC2=O)c(C)c1 (stereo not given) | 31.4 |
| CCc1nc2ccccc2c(=O)n1CC1(O)CCN(C(=O)C2CC2)CC1 | -11.5 |
| Cc1cc2c(=O)n3c(nc2s1)CCN(Cc1cnc(C)n1C)CC3 | -4.27 |
| Cc1cc2c(=O)n3c(nc2s1)CCN(Cc1[nH]cnc1C)CC3 | -9.2 |
| Cc1cc2c(=O)n3c(nc2s1)CCN(Cc1cncn1C)CC3 | -7.45 |
| CCc1nc2ccccc2c(=O)n1CC1(O)CCNCC1 | -11.1 |
| Cc1nc(CC(=O)N2CCC(c3nn(C)c4ncccc34)CC2)cs1 | -9.42 |
| Cc1ccc(CN2Cc3ccccc3O[C@]3(CC[C@H](CO)CC3)C2)s1 | 5.08 |
| Cn1nc(C2CCCN(Cc3ccccc3)C2)c2nccnc21 (stereo not given) | 2.89 |
| Clc1ccc(-c2ccc(C3CNCCO3)nc2)cc1 (stereo not given) | -0.52 |
| Cc1nccc(C2(C)CCCNC2)n1 (stereo not given) | 16.5 |
| Cc1ccc2c(CC(=O)N(C)CCN(C)C)c(C)[nH]c2c1C | 2.2 |
| Cc1nn(C(C)C)c(C)c1CN1CCN(C2CCCCC2)C(=O)C1 | -3.48 |
| CCc1cccc2c(CC(=O)N(C)CCN(C)C)c(C)[nH]c12 | -8.74 |
